Source: US11267825B2 (AICURIS GMBH & CO. KG, priority 2017, dated 2022)
Where two headings read alike, the source gives them in different places.

How the values were obtained:
HBV = assay: Determination of HBV DNA from the supernatants of HepAD38 cells (anti-HBV activity); assay type: cell-based, hepatitis B virus; settings: Hepatitis B virus, read-out: Cell Activity (EC50)
Procedure, shortened: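 EC50 values were obtained by non-linear regression of HBV DNA copy numbers measured by qPCR against pCH-9/3091 plasmid standards. The DNA came from filtered supernatants collected on day 6. Before that, tetracycline-withdrawn HepAD38 cells had been exposed to serial half-log compound dilutions, with tetracycline-treated cells as the non-producing control.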

HBV core protein = HBV core protein (UniProt P03146); assay type: biochemical; settings: read-out: Assembly Activity (IC50); BODIPY-FL labelled core protein, assembly started with NaCl, read after 6 min
Procedure, shortened: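 Compounds tested at 8 concentrations in 0.5-log steps from 100, 31.6 or 10 μM against 1.0–2.0 μM BODIPY-FL-labelled Cys150 core dimers (residues 1–149), 50 mM HEPES pH 7.5. NaCl ([…] final) triggered assembly; quenching read at 6 min, 477/525 nm, with 2.5 M and 0 M NaCl as controls; EC50 by nonlinear fit.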

[1] = 144 h, HBV DNA in HepAD38 supernatant at day 6

HBV core protein, sequence (P03146 whole entry, looked up, the tested form may be a part): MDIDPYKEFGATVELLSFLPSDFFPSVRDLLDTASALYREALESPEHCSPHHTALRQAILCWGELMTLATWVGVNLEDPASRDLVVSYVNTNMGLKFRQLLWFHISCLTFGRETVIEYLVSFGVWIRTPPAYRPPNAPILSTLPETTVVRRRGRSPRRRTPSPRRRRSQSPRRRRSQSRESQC

Compound: CC(C)OC(=O)[C@H](C)NP(=O)(OCCNc1nc2c(s1)CN(C(=O)c1cc3c(F)cc(F)cc3[nH]1)CC2)Oc1ccccc1 (stereo partly drawn) [Example 100, Propan-2-yl (2S)-2-{[(2-{[5-(4,6-difluoro-1H-indole-2-carbonyl)-4H,5H,6H,7H-[1,3]thiazolo[5,4-c]pyridin-2-yl]amino}ethoxy)(phenoxy)phosphoryl]amino}propanoate]
- EC50 (HBV; HePAD38, 144 h): 1 to 10 µM
- IC50 (HBV core protein): < 100 µM

Compound: Cc1cc(C)c2[nH]c(C(=O)N3CCc4nc(N)sc4C3)cc2c1 [Example 137, 5-(5,7-dimethyl-1H-indole-2-carbonyl)-4H,5H,6H,7H-[1,3]thiazolo[5,4-c]pyridin-2-amine]
- EC50 (HBV; [1]): < 100 µM
- IC50 (HBV core protein): < 100 µM

Compound: O=C(c1cc2c(Cl)c(F)ccc2[nH]1)N1CCc2nc(NCC3(O)CCC3)sc2C1 [Example 362, 1-({[5-(4-chloro-5-fluoro-1H-indole-2-carbonyl)-4H,5H,6H,7H-[1,3]thiazolo[5,4-c]pyridin-2-yl]amino}methyl)cyclobutan-1-ol]
- EC50 (HBV; [1]): < 1 µM
- IC50 (HBV core protein): < 5 µM

Compound: Cc1cccc2[nH]c(C(=O)N3CCc4nc(NCC5(CO)CC5)sc4C3)cc12 [Example 64, [1-({[5-(4-methyl-1H-indole-2-carbonyl)-4H,5H,6H,7H-[1,3]thiazolo[5,4-c]pyridin-2-yl]amino}methyl)cyclopropyl]methanol]
- EC50 (HBV; [1]): < 1 µM
- IC50 (HBV core protein): < 5 µM

Compound: Cc1cc(F)cc2[nH]c(C(=O)N3CCc4nc(N[C@H]5CC[C@@H](O)CC5)sc4C3)cc12 [Example 303, (1s,4s)-4-{[5-(6-fluoro-4-methyl-1H-indole-2-carbonyl)-4H,5H,6H,7H-[1,3]thiazolo[5,4-c]pyridin-2-yl]amino}cyclohexan-1-ol]
- EC50 (HBV; [1]): < 1 µM
- IC50 (HBV core protein): < 5 µM

Compound: Cc1cccc2[nH]c(C(=O)N3CCc4nc(N)sc4C3)cc12 [Example 149, 5-(4-methyl-1H-indole-2-carbonyl)-41H,5H,6H,7H-[1,3]thiazolo[5,4-c]pyridin-2-amine]
- EC50 (HBV; [1]): 1 to 10 µM
- IC50 (HBV core protein): < 5 µM

Compound: Nc1nc2c(s1)CN(C(=O)c1cc3c(C(F)F)cccc3[nH]1)CC2 [Example 293, 5-[4-(difluoromethyl)-1H-indole-2-carbonyl]-4H,5H,6H,7H-[1,3]thiazolo[5,4-c]pyridin-2-amine]
- EC50 (HBV; [1]): < 1 µM
- IC50 (HBV core protein): < 5 µM

Compound: CCOCC(=O)Nc1nc2c(s1)CN(C(=O)c1cc3ccccc3[nH]1)CC2 [Example 4, 2-ethoxy-N-[5-(1H-indole-2-carbonyl)-4H,5H,6H,7H-[1,3]thiazolo[5,4-c]pyridin-2-yl]acetamide]
- EC50 (HBV; [1]): < 1 µM
- IC50 (HBV core protein): < 5 µM

Compound: Nc1nc2c(s1)CN(C(=O)c1cc3c([N+](=O)[O-])cccc3[nH]1)CC2 [Example 145, 5-(4-nitro-1H-indole-2-carbonyl)-4H,5H,6H,7H-[1,3]thiazolo[5,4-c]pyridin-2-amine]
- EC50 (HBV; [1]): < 1 µM
- IC50 (HBV core protein): < 5 µM

Compound: CC(C)(CC(=O)Nc1nc2c(s1)CN(C(=O)c1cc3ccccc3[nH]1)CC2)C1CC1 [Example 261, 3-cyclopropyl-N-[5-(1H-indole-2-carbonyl)-4H,5H,6H,7H-[1,3]thiazolo[5,4-c]pyridin-2-yl]-3-methylbutanamide]
- EC50 (HBV; [1]): < 1 µM
- IC50 (HBV core protein): < 100 µM

Compound: O=C(c1cc2ccccc2[nH]1)N1CCc2nc(NCC(CO)CC3CCC3)sc2C1 (centres unmarked) [Example 227, 2-(cyclobutylmethyl)-3-{[5-(1H-indole-2-carbonyl)-4H,5H,6H,7H-[1,3]thiazolo[5,4-c]pyridin-2-yl]amino}propan-1-ol]
- EC50 (HBV; [1]): < 1 µM
- IC50 (HBV core protein): < 100 µM

Compound: Cc1nc2c(s1)CN(C(=O)c1cc3c(F)cc(Cl)cc3[nH]1)CC2 [Example 165]
- EC50 (HBV; [1]): 1 to 10 µM
- IC50 (HBV core protein): < 5 µM

Compound: O=C(c1cc2c(F)cc(F)cc2[nH]1)N1CCc2nc(NCCO)sc2C1 [Example 111, 2-{[5-(4,6-difluoro-1H-indole-2-carbonyl)-4H,5H,6H,7H-[1,3]thiazolo[5,4-c]pyridin-2-yl]amino}ethan-1-ol]
- EC50 (HBV; [1]): < 1 µM
- IC50 (HBV core protein): < 5 µM
